Literature values in patent US20150031700A1, “Methods of Treating Cutaneous Flushing Using Selective Alpha-2-adrenergic Receptor Agonists” (GALDERMA LABORATORIES INC., priority 2003, published 2015).

How the values were obtained:
[1] = tested on: α2 adrenergic receptor; details: α2 vs α1 adrenergic receptor, compared with clonidine
[2] = tested on: α2 adrenergic receptor; details: compared with clonidine; Burke et al., 1996
[3] = toxicity studies; Walters, 1996

selectivity for the α2 adrenergic receptor relative to clonidine [1]	Compound	α2 adrenergic receptor activity relative to clonidine [2] [fold]	oncogenic or teratogenic activity [3]	toxicity [3]
7-12 fold	Brc1c(NC2=NCCN2)ccc2nccnc12 [brimonidine]			
	brimonidine tartrate	10	no oncogenic or teratogenic activity	nontoxic
